This note sets out measurements from patent US10730863B2, “Bridged bicyclic compounds as farnesoid X receptor modulators” (BRISTOL-MYERS SQUIBB COMPANY, priority 2017, dated 2020).

This assay has as its target FXR (Homo sapiens (Human), UniProt Q96RI1). Briefly: FXR EC50 (FXR agonist activity reported with each example). Type of assay: cell-based.

Chain of FXR (Q96RI1 262-486): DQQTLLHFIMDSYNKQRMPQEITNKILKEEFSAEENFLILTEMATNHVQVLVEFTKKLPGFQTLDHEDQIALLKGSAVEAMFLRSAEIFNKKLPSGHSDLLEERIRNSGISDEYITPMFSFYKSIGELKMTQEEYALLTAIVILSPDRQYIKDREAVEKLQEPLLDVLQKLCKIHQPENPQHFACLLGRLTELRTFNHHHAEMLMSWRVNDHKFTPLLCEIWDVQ

Regarding `COc1ccc(C(=O)O)cc1-c1noc(C23CCC(COCc4c(-c5c(Cl)cncc5Cl)noc4C4CC4)(CC2)CC3)n1` [Example 487, 3-(5-(4-(((5-cyclopropyl-3-(3,5-dichloropyridin-4-yl)isoxazol-4-yl)methoxy)methyl)bicyclo[2.2.2]octan-1-yl)-1,2,4-oxadiazol-3-yl)-4-methoxybenzoic acid], the response was half-maximal at 5400 nM (EC50).
For the compound `COc1cc(-c2noc(C34CCC(OCc5c(-c6c(Cl)cncc6Cl)noc5C5CC5)(CC3)CC4)n2)cc(C(=O)O)n1` [Example 257, 4-(5-(4-((5-cyclopropyl-3-(3,5-dichloropyridin-4-yl)isoxazol-4-yl)methoxy)bicyclo[2.2.2]octan-1-yl)-1,2,4-oxadiazol-3-yl)-6-methoxypicolinic acid], the EC50 (commonly the concentration needed to bring the measured effect to its halfway point) is 79 nM.
Consider `COc1cncc(Cl)c1-c1noc(C2CC2)c1COC12CCC(COc3ccc4cc(C(=O)O)cc(C5CC5)c4n3)(CC1)CC2` [Example 351, 2-((4-((3-(3-chloro-5-methoxypyridin-4-yl)-5-cyclopropylisoxazol-4-yl)methoxy)bicyclo[2.2.2]octan-1-yl)methoxy)-8-cyclopropylquinoline-6-carboxylic acid], for which the half-maximal effective concentration (EC50) turned out to be 23 nM.
Next, `O=C(O)c1cccc(OCC23CCC(OCc4c(-c5c(Cl)cccc5Cl)noc4C4CC4)(CC2)CC3)n1` [Example 110, 6-((4-((5-cyclopropyl-3-(2,6-dichlorophenyl)isoxazol-4-yl)methoxy)bicyclo[2.2.2]octan-1-yl)methoxy)picolinic acid]: 52 nM; `O=C(O)c1ccc(-c2noc(C34CCC(OCc5c(-c6c(Cl)cccc6Cl)noc5C5CC5)(CC3)CC4)n2)nc1` [Example 9, 6-(5-(4-((5-cyclopropyl-3-(2,6-dichlorophenyl)isoxazol-4-yl)methoxy)bicyclo[2.2.2]octan-1-yl)-1,2,4-oxadiazol-3-yl)nicotinic acid]: 950 nM.
Next, `COc1cc(OCC23CCC(OCc4c(-c5c(Cl)cncc5Cl)noc4C4CC4)(CC2)CC3)cc(C(=O)O)c1` [Example 321, 3-((4-((5-cyclopropyl-3-(3,5-dichloropyridin-4-yl)isoxazol-4-yl)methoxy)bicyclo[2.2.2]octan-1-yl)methoxy)-5-methoxybenzoic acid]: 7 nM; `O=C(O)c1cccc(/C=C/C23CCC(COCc4c(-c5ccccc5OC(F)(F)F)noc4C4CC4)(CC2)CO3)c1` [Example 197, (E)-3-(2-(4-(((5-cyclopropyl-3-(2-(trifluoromethoxy)phenyl)isoxazol-4-yl)methoxy)methyl)-2-oxabicyclo[2.2.2]octan-1-yl)vinyl)benzoic acid]: 90 nM.
Next, `COc1ccc(-c2noc(C34CCC(OCc5c(-c6ccccc6C(F)(F)F)noc5C5CC5)(CC3)CC4)n2)cc1C(=O)O` [Example 31]: 370 nM; `Clc1cccc(Cl)c1-c1noc(C2CC2)c1COC12CCC(c3nc4ccc(-c5nnn[nH]5)cc4s3)(CC1)CC2` [Example 66, 4-(((4-(6-(1H-tetrazol-5-yl)benzo[d]thiazol-2-yl)bicyclo[2.2.2]octan-1-yl)oxy)methyl)-5-cyclopropyl-3-(2,6-dichlorophenyl)isoxazole]: 390 nM.
Turning to `O=C(O)c1cnc(OCC23CCC(OCc4c(-c5c(Cl)cncc5Cl)noc4C4CC4)(CC2)CC3)c(F)c1` [Example 118, 6-((4-((5-cyclopropyl-3-(3,5-dichloropyridin-4-yl)isoxazol-4-yl)methoxy)bicyclo[2.2.2]octan-1-yl)methoxy)-5-fluoronicotinic acid], the EC50 was 33 nM.
Compound `O=C(O)c1cc(OCC2CCC2)c2cc(OCC34CCC(OCc5c(-c6c(Cl)cncc6Cl)noc5C5CC5)(CC3)CC4)ccc2n1` [Example 353] gave a 50% effective concentration (EC50) of 11 nM.
The result for `O=C(O)c1ccc(-c2noc(C34CCC(OCc5c(-c6ccccc6C(F)(F)F)noc5C5CC5)(CC3)CC4)n2)cn1` [Example 46] reads 2700 nM.
The result for `COc1cc(C#CC23CCC(OCc4c(-c5c(Cl)cncc5Cl)noc4C4CC4)(CC2)CC3)cc(C(=O)O)c1` [Example 380] reads 24 nM; that for `O=C(O)c1cc(-c2noc(C34CCC(OCc5c(-c6c(Cl)cncc6Cl)noc5C5CC5)(CC3)CC4)n2)cc(OC2CC2)n1` [Example 260, 6-cyclopropoxy-4-(5-(4-((5-cyclopropyl-3-(3,5-dichloropyridin-4-yl)isoxazol-4-yl)methoxy)bicyclo[2.2.2]octan-1-yl)-1,2,4-oxadiazol-3-yl)picolinic acid], 39 nM; that for `O=C(O)c1ccc(OC2COC2)c2nc(C34CCC(OCc5c(-c6c(Cl)cncc6Cl)noc5C5CC5)(CC3)CC4)ccc12` [Example 406], 54 nM.
The result for `O=C(O)c1cccc(-c2nc(C34CCC(OCc5c(-c6ccccc6C(F)(F)F)noc5C5CC5)(CC3)CC4)no2)c1` [Example 20, 3-(3-(4-((5-cyclopropyl-3-(2-(trifluoromethyl)phenyl)isoxazol-4-yl)methoxy)bicyclo[2.2.2]octan-1-yl)-1,2,4-oxadiazol-5-yl)benzoic acid] reads 510 nM.
Consider `O=C(O)c1cccc2nc(C34CCC(COCc5c(-c6c(Cl)cccc6Cl)noc5C5CC5)(CC3)CC4)sc12` [Example 172, 2-(4-(((5-cyclopropyl-3-(2,6-dichlorophenyl)isoxazol-4-yl)methoxy)methyl)bicyclo[2.2.2]octan-1-yl)benzo[d]thiazole-7-carboxylic acid], for which the EC50 was 89 nM.
`COc1c(F)cc(-c2noc(C34CCC(OCc5c(-c6c(Cl)cncc6Cl)noc5C5CC5)(CC3)CC4)n2)cc1C(=O)O` [Example 238, 5-(5-(4-((5-cyclopropyl-3-(3,5-dichloropyridin-4-yl)isoxazol-4-yl)methoxy)bicyclo[2.2.2]octan-1-yl)-1,2,4-oxadiazol-3-yl)-3-fluoro-2-methoxybenzoic acid]: the EC50 was 21 nM.
The result for `O=C(O)c1ccc(F)c(OCC23CCC(OCc4c(-c5c(Cl)cncc5Cl)noc4C4CC4)(CC2)CC3)c1` [Example 98, 3-((4-((5-cyclopropyl-3-(3,5-dichloropyridin-4-yl)isoxazol-4-yl)methoxy)bicyclo[2.2.2]octan-1-yl)methoxy)-4-fluorobenzoic acid] reads 22 nM; that for `Cn1nc(-c2nc(C34CCC(OCc5c(-c6c(Cl)cccc6Cl)noc5C5CC5)(CC3)CC4)no2)cc1C(=O)O` [Example 70, 3-(3-(4-((5-Cyclopropyl-3-(2,6-dichlorophenyl)isoxazol-4-yl)methoxy)bicyclo[2.2.2]octan-1-yl)-1,2,4-oxadiazol-5-yl)-1-methyl-1H-pyrazole-5-carboxylic acid], 430 nM.
In turn, `O=C(O)[C@@H]1CCC[C@H](OCC23CCC(OCc4c(-c5ccccc5OC(F)(F)F)noc4C4CC4)(CC2)CC3)C1` [Example 81] returned an EC50 of 4700 nM.
In turn, `COc1c(C#CC23CCC(OCc4c(-c5c(Cl)cncc5Cl)noc4C4CC4)(CC2)CC3)cccc1C(=O)O` [Example 381] had an EC50 of 220 nM.
Next, `O=C(O)c1cc(C(F)(F)F)cc2nc(C34CCC(/C=C/c5c(-c6c(Cl)cncc6Cl)noc5C5CC5)(CC3)CC4)sc12` [Example 507, (E)-2-(4-(2-(5-cyclopropyl-3-(3,5-dichloropyridin-4-yl)isoxazol-4-yl)vinyl)bicyclo[2.2.2]octan-1-yl)-5-(trifluoromethyl)benzo[d]thiazole-7-carboxylic acid]: 20 nM.
